Measurements published in the NIST ThermoML archive (doi:10.1016/j.jct.2011.02.008).

Assay: xn = mol fraction of the nth substance listed
Conditions: Liquid, Vibrating tube method

COC(=O)c1ccccc1 [methyl benzoate] + C1CCCCC1
mass density [kg/m3]
Conditions	x1 = 0.0985	x1 = 0.1963	x1 = 0.2939	x1 = 0.3942	x1 = 0.4955	x1 = 0.596	x1 = 0.6975	x1 = 0.7993	x1 = 0.8982
278.15 K, 100 kPa	823.9	855.7	887.6	919.6	951.4	983.4	1014.3	1043.9	1072.7
278.15 K, 1000 kPa	824.5	856.4	888.3	920.2	952	984	1014.9	1044.4	1073.2
278.15 K, 5000 kPa	827.6	859.3	891.2	923	954.8	986.7	1017.4	1046.9	1075.6
278.15 K, 10000 kPa	831.2	863	894.7	926.4	958	989.9	1020.5	1049.8	1078.5
278.15 K, 15000 kPa	834.6	866.3	898	929.7	961.2	993	1023.5	1052.8	1081.3
278.15 K, 20000 kPa	838	869.6	901.3	932.8	964.3	996	1026.4	1055.6	1084.1
278.15 K, 25000 kPa	841.2	872.8	904.4	935.9	967.3	998.9	1029.3	1058.3	1086.7
278.15 K, 30000 kPa	844.4	875.9	907.4	938.9	970.2	1001.7	1032	1061	1089.3
278.15 K, 35000 kPa	847.4	878.9	910.4	941.8	973	1004.5	1034.7	1063.6	1091.9
278.15 K, 40000 kPa	850.5	881.8	913.3	944.6	975.8	1007.2	1037.4	1066.2	1094.4
278.15 K, 45000 kPa	–	884.6	916.1	947.4	978.5	1009.9	1040	1068.7	1096.9
278.15 K, 50000 kPa	–	887.4	918.8	950	981.1	1012.5	1042.5	1071.2	1099.3
278.15 K, 55000 kPa	–	890.1	921.5	952.7	983.7	1015	1045	1073.7	1101.7
278.15 K, 60000 kPa	–	892.6	923.9	955.1	986.3	1017.4	1047.3	1075.9	1103.8
288.15 K, 100 kPa	814.3	846.1	878	909.9	941.8	973.8	1004.7	1034.2	1063.1
288.15 K, 1000 kPa	815	846.9	878.7	910.6	942.4	974.5	1005.3	1034.8	1063.7
288.15 K, 5000 kPa	818.2	850	881.8	913.6	945.3	976.6	1008	1037.5	1066.2
288.15 K, 10000 kPa	822	853.8	885.5	917.2	948.8	980.7	1011.3	1040.6	1069.2
288.15 K, 15000 kPa	825.8	857.4	889.1	920.7	952.2	983.9	1014.4	1043.6	1072.2
288.15 K, 20000 kPa	829.2	860.9	892.5	924	955.4	987.1	1017.5	1046.6	1075
288.15 K, 25000 kPa	832.7	864.3	895.8	927.2	958.6	990.1	1020.5	1049.5	1077.9
288.15 K, 30000 kPa	836	867.5	899	930.3	961.6	993.1	1023.4	1052.3	1080.6
288.15 K, 35000 kPa	839.1	870.7	902.1	933.4	964.6	996	1026.2	1055	1083.3
288.15 K, 40000 kPa	842.2	873.7	905.1	936.3	967.5	998.8	1028.9	1057.7	1085.9
288.15 K, 45000 kPa	845.2	876.7	908	939.2	970.3	1001.6	1031.6	1060.3	1088.4
288.15 K, 50000 kPa	848.1	879.6	910.9	942	973	1004.3	1034.3	1062.9	1090.9
288.15 K, 55000 kPa	850.9	882.4	913.6	944.7	975.7	1006.9	1036.8	1065.5	1093.4
288.15 K, 60000 kPa	853.5	885	916.2	947.2	978.2	1009.3	1039.2	1067.8	1095.9
298.15 K, 100 kPa	804.8	836.5	868.4	900.3	932.2	964.2	995.1	1024.7	1053.6
298.15 K, 1000 kPa	805.6	837.3	869.2	901	932.9	964.9	995.8	1025.3	1054.2
298.15 K, 5000 kPa	809	840.7	872.5	904.2	935.9	967.9	998.6	1028.1	1056.9
298.15 K, 10000 kPa	813.1	844.7	876.3	908	939.6	971.4	1002	1031.4	1060
298.15 K, 15000 kPa	817.1	848.6	880.1	911.7	943.2	974.8	1005.4	1034.6	1063.1
298.15 K, 20000 kPa	820.8	852.2	883.7	915.2	946.6	978.2	1008.5	1037.7	1066.1
298.15 K, 25000 kPa	824.4	855.8	887.2	918.6	949.9	981.4	1011.7	1040.7	1069
298.15 K, 30000 kPa	827.9	859.2	890.5	921.9	953.1	984.5	1014.7	1043.6	1071.9
298.15 K, 35000 kPa	831.2	862.5	893.8	925	956.2	987.5	1017.7	1046.5	1074.7
298.15 K, 40000 kPa	834.4	865.7	896.9	928.1	959.2	990.5	1020.5	1049.3	1077.4
298.15 K, 45000 kPa	837.5	868.8	900	931.1	962.1	993.4	1023.3	1052.1	1080.1
298.15 K, 50000 kPa	840.5	871.8	902.9	934	965	996.2	1026.1	1054.7	1082.7
298.15 K, 55000 kPa	843.4	874.7	905.8	936.9	967.8	999	1028.8	1057.4	1085.3
298.15 K, 60000 kPa	846.1	877.3	908.6	939.5	970.3	1001.4	1031.3	1059.9	1087.8
308.15 K, 100 kPa	795.4	827	858.8	890.8	922.6	954.7	985.6	1015.2	1044.1
308.15 K, 1000 kPa	796.2	827.8	859.6	891.5	923.4	955.4	986.3	1015.9	1044.7
308.15 K, 5000 kPa	799.8	831.2	863.1	894.9	926.6	958.5	989.3	1018.7	1047.5
308.15 K, 10000 kPa	804.3	835.7	867.2	898.9	930.5	962.3	992.9	1022.2	1050.8
308.15 K, 15000 kPa	808.3	839.8	871.2	902.8	934.2	965.9	996.4	1025.6	1054.1
308.15 K, 20000 kPa	812.3	843.6	875	906.5	937.8	969.4	999.8	1028.8	1057.2
308.15 K, 25000 kPa	816.1	847.3	878.7	910	941.3	972.8	1003	1032	1060.3
308.15 K, 30000 kPa	819.7	850.9	882.2	913.5	944.6	976	1006.2	1035	1063.3
308.15 K, 35000 kPa	823.2	854.4	885.6	916.8	947.9	979.2	1009.3	1038	1066.2
308.15 K, 40000 kPa	826.5	857.7	888.9	920	951	982.3	1012.3	1041	1069
308.15 K, 45000 kPa	829.8	861	892.1	923.2	954.1	985.3	1015.2	1043.8	1071.8
308.15 K, 50000 kPa	833	864.1	895.1	926.2	957.1	988.2	1018.1	1046.6	1074.6
308.15 K, 55000 kPa	836	867.1	898.2	929.2	960	991.1	1020.9	1049.3	1077.2
308.15 K, 60000 kPa	838.8	869.5	900.9	931.9	962.7	993.7	1023.4	1051.9	1079.9
318.15 K, 100 kPa	785.8	817.4	849.2	881.3	913.1	945.2	976.1	1005.8	1034.6
318.15 K, 1000 kPa	786.8	818.3	850.1	882.1	913.9	945.9	976.8	1006.5	1035.2
318.15 K, 5000 kPa	790.7	822	853.8	885.7	917.3	949.3	980	1009.5	1038.2
318.15 K, 10000 kPa	795.2	826.6	858.2	889.9	921.4	953.2	983.8	1013.1	1041.7
318.15 K, 15000 kPa	799.7	830.9	862.4	893.9	925.4	957	987.5	1016.7	1045.1
318.15 K, 20000 kPa	803.8	835.1	866.4	897.8	929.1	960.7	991	1020.1	1048.4
318.15 K, 25000 kPa	807.8	839	870.2	901.5	932.7	964.2	994.4	1023.3	1051.6
318.15 K, 30000 kPa	811.6	842.8	–	–	–	–	–	–	–
